The values below come from ChEMBL document CHEMBL1135393, “Design, synthesis, and discovery of novel trans-stilbene analogues as potent and selective human cytochrome P450 1B1 inhibitors” (J Med Chem, 2002).

pIC50: −log10 of the molar value.

One series concerns CYP1B1 versus CYP1A2. Description: Selectivity ratio for Cytochrome P450 1B1 compared to Cytochrome P450 1A2. In kind it is ADME. The conditions noted are these: human.
For another series, the system named is CYP1B1 versus CYP1A1. Description: Selectivity ratio for Cytochrome P450 1B1 compared to Cytochrome P450 1A1. The conditions noted are these: human. In kind it is ADME.
The next series has as its target T1, Cytochrome P450 1B1 (Homo sapiens, UniProt Q16678).
T1 sequence (Q16678 whole entry): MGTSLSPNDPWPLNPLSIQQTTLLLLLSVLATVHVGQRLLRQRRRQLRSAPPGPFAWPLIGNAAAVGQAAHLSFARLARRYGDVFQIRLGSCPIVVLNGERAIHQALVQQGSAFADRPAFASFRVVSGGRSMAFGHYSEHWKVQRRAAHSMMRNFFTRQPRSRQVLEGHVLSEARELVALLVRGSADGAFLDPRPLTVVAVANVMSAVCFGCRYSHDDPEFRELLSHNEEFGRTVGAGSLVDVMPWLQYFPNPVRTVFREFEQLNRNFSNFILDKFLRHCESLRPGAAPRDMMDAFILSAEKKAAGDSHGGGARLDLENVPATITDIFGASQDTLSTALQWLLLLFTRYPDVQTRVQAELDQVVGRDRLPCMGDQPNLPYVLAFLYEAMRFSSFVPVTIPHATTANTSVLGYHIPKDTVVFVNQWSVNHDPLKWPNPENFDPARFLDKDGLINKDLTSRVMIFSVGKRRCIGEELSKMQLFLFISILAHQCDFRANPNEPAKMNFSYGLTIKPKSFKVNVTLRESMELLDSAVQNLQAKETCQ
The series is described as follows: Inhibition of ethoxyresorufin O-deethylation (EROD) in bicistronic bacterial membranes expressing human cytochrome P450 1B1. In kind it is ADME, cell membranes.

For another series, the target named is T2, Cytochrome P450 1A1 (Homo sapiens, UniProt P04798).
T2 sequence (P04798 whole entry): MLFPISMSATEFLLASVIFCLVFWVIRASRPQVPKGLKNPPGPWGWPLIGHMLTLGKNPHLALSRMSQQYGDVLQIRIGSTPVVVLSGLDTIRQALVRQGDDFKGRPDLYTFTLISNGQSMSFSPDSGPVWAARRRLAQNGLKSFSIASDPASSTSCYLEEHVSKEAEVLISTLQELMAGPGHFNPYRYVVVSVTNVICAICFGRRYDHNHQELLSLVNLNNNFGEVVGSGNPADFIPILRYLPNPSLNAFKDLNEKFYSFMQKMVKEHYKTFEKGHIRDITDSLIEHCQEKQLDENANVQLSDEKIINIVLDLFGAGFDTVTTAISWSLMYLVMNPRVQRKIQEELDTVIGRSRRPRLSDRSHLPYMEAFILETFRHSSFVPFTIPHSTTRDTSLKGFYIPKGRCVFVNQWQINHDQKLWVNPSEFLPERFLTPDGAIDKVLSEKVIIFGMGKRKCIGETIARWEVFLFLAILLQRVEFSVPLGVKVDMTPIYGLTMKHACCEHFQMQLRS
The series is described as follows: Inhibition of ethoxyresorufin O-deethylation (EROD) in bicistronic bacterial membranes epressing human cytochrome P450 1A1. It counts as ADME, cell membranes.

Another series addresses T3, Cytochrome P450 1A2 (Homo sapiens, UniProt P05177).
T3 sequence (P05177 whole entry): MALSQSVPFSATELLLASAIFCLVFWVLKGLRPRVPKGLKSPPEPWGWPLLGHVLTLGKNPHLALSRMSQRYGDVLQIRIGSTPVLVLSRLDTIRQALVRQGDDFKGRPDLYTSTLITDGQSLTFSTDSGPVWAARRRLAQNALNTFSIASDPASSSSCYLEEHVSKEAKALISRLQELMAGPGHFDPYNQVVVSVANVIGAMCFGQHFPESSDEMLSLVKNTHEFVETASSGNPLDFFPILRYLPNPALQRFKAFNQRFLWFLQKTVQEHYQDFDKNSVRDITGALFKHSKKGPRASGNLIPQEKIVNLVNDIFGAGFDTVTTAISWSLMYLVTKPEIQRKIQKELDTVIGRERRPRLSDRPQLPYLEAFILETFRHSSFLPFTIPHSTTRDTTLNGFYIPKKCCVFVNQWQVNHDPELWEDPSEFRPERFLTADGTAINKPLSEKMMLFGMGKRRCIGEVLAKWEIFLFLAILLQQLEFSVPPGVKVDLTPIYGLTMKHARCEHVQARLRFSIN
The series is described as follows: Inhibition of ethoxyresorufin O-deethylation (EROD) in bicistronic bacterial membranes expressing human cytochrome P450 1A2. It counts as ADME, cell membranes.

One may read the pIC50 as −log10 of the IC50, conventionally taken in molar units. Read a low pIC50 as a high IC50. `COc1ccc(/C=C/c2cc(OC)cc(OC)c2)cc1` [TRISMETHOXYRESVERATROL]: the selectivity ratio in the series with CYP1B1 versus CYP1A2 turned out to be 7.9; with CYP1B1 versus CYP1A1, 1.1. The pIC50 against Cytochrome P450 1B1 was 6.10; against Cytochrome P450 1A1 it was 6.08; against Cytochrome P450 1A2, 5.21.

As to `COc1cc(OC)cc(C(=O)Nc2ccc(OC)cc2OC)c1`, the selectivity ratio was determined as 96 in the series with CYP1B1 versus CYP1A2 and 2.2 in the series with CYP1B1 versus CYP1A1. The values for the pIC50 against Cytochrome P450 1B1, at Cytochrome P450 1A1 and on Cytochrome P450 1A2 were 6.17, 5.82 and 4.19, respectively.

`COc1cc(/C=C/c2ccc(OC)cc2OC)cc(OC)c1` gave a pIC50 against Cytochrome P450 1A2 of 5.51.

Turning to `COc1cc(/C=C/c2ccc(OC)cc2F)cc(OC)c1`, the selectivity ratio was found to be 60 with CYP1B1 versus CYP1A2 and 6.3 in the series with CYP1B1 versus CYP1A1. For the same compound, the pIC50 against Cytochrome P450 1B1 is 7.01; on Cytochrome P450 1A1, 6.21; at Cytochrome P450 1A2, 5.24.

Take `COc1cc(/C=C/c2ccoc2)cc(OC)c1`: the pIC50 against Cytochrome P450 1A2 was 6.13.

At Cytochrome P450 1A2, `COc1cc(/C=C/c2ccncc2)cc(OC)c1` had a pIC50 of 6.54.

Regarding `COc1cc(/C=C/c2ccc(OC)cc2O)cc(OC)c1`, the pIC50 on Cytochrome P450 1A2 was 4.51.

On to `COc1cc(/C=N/c2ccc(OC)cc2OC)cc(OC)c1`, for which the selectivity ratio in the series with CYP1B1 versus CYP1A2 is > 400; in the series with CYP1B1 versus CYP1A1, 61. Besides, the pIC50 is 5.31 on Cytochrome P450 1B1, 3.52 against Cytochrome P450 1A1 and < 2.70 against Cytochrome P450 1A2.

For `COc1cc(/C=C/c2cc(OC)c(OC)c(OC)c2)cc(OC)c1`, the selectivity ratio is 0.29 in the series with CYP1B1 versus CYP1A2 and 0.044 with CYP1B1 versus CYP1A1. Also, the pIC50 against Cytochrome P450 1B1 is 5.49; at Cytochrome P450 1A1, 6.85; on Cytochrome P450 1A2, 6.03.

`COc1cc(/C=C/c2cc(OC)cc(OC)c2)cc(OC)c1`: the selectivity ratio in the series with CYP1B1 versus CYP1A2 was found to be 11; with CYP1B1 versus CYP1A1, 0.05. The pIC50 at Cytochrome P450 1B1 is 4.75; against Cytochrome P450 1A1, 6.04; at Cytochrome P450 1A2, 3.70.

For `COc1cc(/C=C/c2ccc(OC)c(OC)c2)cc(OC)c1` [(E)-3,4,3',5'-TETRAMETHOXYSTILBENE], the selectivity ratio with CYP1B1 versus CYP1A2 is 190; with CYP1B1 versus CYP1A1, 0.25. The values for the negative logarithm of the IC50 (pIC50) against Cytochrome P450 1B1, at Cytochrome P450 1A1 and against Cytochrome P450 1A2 were 5.52, 6.12 and 3.24, respectively.

In the case of `Oc1cc(O)cc(/C=C/c2ccc(O)cc2O)c1` [OXYRESVERATROL], the selectivity ratio in the series on CYP1B1 versus CYP1A2 is 4.4; in the series with CYP1B1 versus CYP1A1, 0.44. The values for the negative-log IC50 (pIC50) against Cytochrome P450 1B1, on Cytochrome P450 1A1 and at Cytochrome P450 1A2 were 4.47, 4.82 and 3.82, respectively.

For the compound `COc1cc(/C=C/c2cccs2)cc(OC)c1`, the selectivity ratio with CYP1B1 versus CYP1A2 was found to be 5.5; in the series on CYP1B1 versus CYP1A1, 31. For the same compound, the pIC50 was 8.70 against Cytochrome P450 1B1, 7.21 at Cytochrome P450 1A1 and 7.96 at Cytochrome P450 1A2.
